Entries after “also recorded” stand apart in the source; their conditions may differ.
Columns and labels:
MC3T3-E1 (clone 4) cells [1] = assay: Bone nodule formation and mineralization (Alizarin red stain); type: cell-based; conditions: 0.01 to 1 μg/mL, 26 days, osteogenic conditions
Description: Cells were washed twice with ice-cold PBS and then fixed in ice-cold fixative (10% formalin in PBS) for 15 min. After washed with deionized water, fixed cells were stained with 1% alizarin S solution, pH 4.2 for 15 min and then were washed thoroughly with deionized water. Mineralized matrix was then detected.

MC3T3-E1 (clone 4) cells [2] = assay: MTT-based cell proliferation assay; conditions: 0.01 to 1 μg/mL, 2 days, osteogenic medium
Description: (§1) Cell proliferation assay. Cell proliferation studies were performed as previously described using MTT-based (GE Healthcare, Piscataway, N.J., USA) cell proliferation assays (Cheung et a/, FEBS Lett (2006), 580, 121). After treatment with potential osteoblastogenesis modulating agents for 2 days, MTT was added at a final concentration of 0.5 mg/ml for 3 h, cells were solubilized with isopropanol containing 0.1% sodium dodecyl sulfate and 0.04 N hydrochloric acid, and the absorbance measured at 570 nm. All experiments were repeated three times.
as §1, with “Cell” for “Cell proliferation assay. Cell”, “MTT” for “MTT-based”, “USA)” for “USA) cell proliferation”, “al,” for “a/,”, “the candidate compounds (concentrations 0.01 to 1 μg/mL)” for “potential osteoblastogenesis modulating agents”

ALP = ALP enzyme activity assay (PNPP hydrolysis) in MC3T3-E1 (clone 4) cells; type: cell-based
Description: Cell culture. […]
(§2) ALP assay. ALP activity was measured as p-nitrophenol produced from the hydrolysis of p-nitrophenyl phosphate (PNPP). […] The reaction was stopped by the addition of NaOH (final concentration, 0.5 M) and the absorbance was measured at 410 nm. Enzyme activity was normalized to the protein content determined using Protein Assay Kit (Bio-Rad). […]
as §2, with “MC3T3-E1 (clone 4) cells were cultured for 4, 10, and 14 days with the presence of VCM supplemented with different concentrations (range from 0.01 to 1 μg/mL) of di(amido-substituted)heteroarene compounds. […]” for “ALP assay.”, “absorbance” for “absorbance was”

osterix mRNA = assay: Osterix mRNA expression by real-time quantitative RT-PCR in MC3T3-E1 (clone 4) cells; type: cell-based; conditions: 1 μg/mL (high concentrations), 4 days, osteogenic medium
Description: (§3) Cell culture. MC3T3-E1 (clone 4) cells ([…], Manassas, Va., U.S.A.) were maintained in complete growth medium, i.e., alpha-MEM supplemented with 100 U/mL penicillin, 100 μg/mL streptomycin, and 10% heat-inactivated fetal bovine serum (JRH Biosciences, Lenexa, Kans., U.S.A. Ascorbic acid (AsA) and β-glycerophosphate (β-GP) were purchased from Sigma-Aldrich Co. (St. Louis, […]., U.S.A.). For the screening of osteoblastogenesis-inducing compounds, cells were plated in 24-well plates in complete growth medium at 5×10^4 cells/cm^2 and after overnight incubation, potential osteoblastogenesis modulating agents were added at 3 different concentrations, each with 10 fold difference. […]
(§4) Real-time quantitative reverse transcription (RT) PCR. […] ALP and osterix mRNA expression was determined by RT followed by real-time TaqMan PCR analysis. […] All PCR reactions were performed in triplicate and data obtained were analyzed using the comparative CT method (Applied Biosystems) with ALP/osterix signals normalized to 18S signal for each sample.
MC3T3-E1 (clone 4) cells were cultured for 4 days, and total RNA was extracted. […] Expression level of osterix expression in MC3T3-E1 (clone 4) cells was determined using Real-Time TaqMan PCR. […]

[3] = Cytotoxicity by standard MTT assay on Vero cells; type: cell-based, African green monkey; conditions: African green monkey, MTT assay, read-out: TC50 (the source's name)
Description: (§5) Cytotoxicity assay. Vero cells, an African green monkey cell line were purchased from American Type Culture Collection (ATCC) and Cell Proliferation Kit I MTT (3-[4,5-dimethylth-iazol-2-yl]-2,5-diphenyltetrazolium bromide) assay was purchased from Roche. Normal human lung fibroblast cell line (CCD-19Lu) was obtained commercially from ATCC. CCD-19Lu cells were maintained in a minimum essential medium with Earle's balanced salts (MEM). The media were supplemented with L-glutamine (2 mM), fetal bovine serum (10%), penicillin (100 U/mL) and streptomycin (100 μg/mL). Cultures were incubated at 37° C. in a 5% CO2/95% air humidified atmosphere. Cell culture flasks and 96-well microtitre plates were purchased from Nalge Nunc Int. Culture medium, other medium constituents and phosphate buffered saline (PBS) were from Gibco BRL.
(§6) The cytotoxicity of selected compounds was determined by MTT according to manufacturer's (Roche) instructions. The experiment (cell viability using MTT as an indicator) was carried out in triplicates. The TC50 (on Vero cells, an African green monkey cell line) is ca. 50 μM, it is concluded that these compounds may be useful for osteoblastogenesis development.

[4] = system: African green monkey Vero cells; assay: Cytotoxicity by standard MTT assay on Vero cells; type: cell-based
Description: as §5, §6

CCD-19L cells = assay: Cytotoxicity by MTT assay on CCD-19L cells (vs vehicle control); type: cell-based, human; conditions: 72 h
From the text: As used herein, the term “CCD-19L cells” described herein refers to normal human lung fibroblast cell line.
as §5
Assays on cytotoxic effects were conducted in 96-well flat-bottomed microtitre plates. […] The formation of formazan was measured with a microtitre plate reader at 550 nm and the percentages of cell survival were determined. The cytotoxicity was evaluated based on the percentage cell survival in a dose dependent manner relative to the negative control (FIG. 8).

ALP mRNA = ALP mRNA expression by real-time quantitative RT-PCR in MC3T3-E1 (clone 4) cells; type: cell-based; conditions: 4 days, osteogenic medium
Description: as §3, §4
MC3T3-E1 (clone 4) cells were cultured for 4 days, and total RNA was extracted. […] Expression level of osterix expression in MC3T3-E1 (clone 4) cells was determined using Real-Time TaqMan polymerase chain reaction (PCR). […]

Structure (SMILES): Cc1ccc(S(=O)(=O)Nc2cn(C)cc2NS(=O)(=O)c2ccc(C)cc2)cc1 [compound 1]
- effect on mineralization of bone nodules (MC3T3-E1 (clone 4) cells [1]): potentiated mineralization of bone nodules
- effect on cell proliferation (MTT) (MC3T3-E1 (clone 4) cells [2]): did not alter
- effect on ALP enzyme activity (ALP; 0.01 to 1 μg/mL, osteogenic medium, 4, 10 and 14 days): significantly enhanced ALP enzyme activity in a dose-dependent manner
- ALP activity up-regulated compared to the control (ALP; 14 days of treatment, 0.1 μg/mL, osteogenic medium): 2 fold
- effect on osterix mRNA expression (osterix mRNA): effectively up-regulated mRNA expression of osterix; also recorded: enhanced osterix mRNA expression
- CC50 [3]: 57 µM
- CC50 ([4]; MTT assay, read-out: TC50 (the source's name)): ≤ 57 µM
- cytotoxicity on Vero cells ([4]; standard MTT assay): low cytotoxicity
- cytotoxicity on CCD-19L cells (CCD-19L cells): low cytotoxicity
- ALP mRNA expression up-regulated (ALP mRNA; 0.1 μg/mL): 16%
- effect on ALP mRNA expression (ALP mRNA; 0.1 and 1 μg/mL): enhanced ALP mRNA expression

Source: patent US7541379B2, “Di(amido-substituted)heteroarene compounds as osteoblastogenesis agents” (The University of Hong Kong, priority 2005, dated 2009)
